Measurements reported in patent US8748369B2, “Use of targeted nitroxide agents in bone healing” (University of Pittsburgh-Of the Commonwealth System of …, priority 2009, dated 2014).
Blank lines part the entries; values can stand above or below the compound they belong to.

Tests used:
[1] = tested on: mitochondria of 32D c13 hemopoietic cells; assay: Mass spectrometry of compounds in mitochondria isolated from 32D cl3 cells; assay type: cell-based, mouse; settings: 100 μM; for permeation of the mitochondrial membrane (unconjugated compound): two hours at 37° C.; for Fmole/l 0 M mitochondrial protein (relative quantification of conjugate concentration at the target site): mouse, 2 h
Experimental: An unconjugated and conjugated NOS antagonist, (AMT, 100 μM) and an unconjugated and conjugated nitroxide derivative (4-amino-TEMPO, 100 μM) were incubated for two hours at 37° C. with 32D c13 hemopoietic cells.
Following incubation, the cells were lysed and the mitochondria isolated for a mass spectrometry analysis where compounds isolated from mitochondria were identified as Na+ adducts. […] Thus, the targeting peptides successfully direct a NOS antagonist and a nitroxide to the mitochondria.
Quantitative mass spectrometry studies were used to compare the effectiveness of several AMT peptide conjugates in permeating the mitochondrial membrane, specifically XJB-5-234, XJB-5-133, XJB-5-241, and XJB-5-127. The Fmole/10 μM mitochondrial protein ratio provides a relative quantification of conjugate concentration at the target site.

[2] = tested on: 32D cl 3 murine hematopoietic cells; assay: Irradiation survival curves of 32D cl 3 cells; assay type: cell-based, mouse; settings: cells incubated in compound
Experimental: FIG. 16 illustrates the effect of GS conjugated nitroxide, XJB-5-125, on gamma-irradiation dose survival curves of 32D cl 3 murine hematopoietic cells.
Irradiation survival curves were performed on cells from the 32D cl 3 mouse hematopoietic progenitor cell line, incubated in 10 μM JP4-039 for 1 hour before irradiation, or plated in methycellulose containing 10 μM JP4-030 after irradiation. Cells were irradiated from 0 to 8 Gy, plated in 0.8% methycellulose containing media, and incubated for 7 days at 37° C. Colonies of greater than 50 cells were counted and data analyzed by linear quadratic and single-hit, multi-target models.

[3] = tested on: mouse embryonic cells (MEC); assay: ActD-induced apoptosis in MECs (PS externalization, caspase-3, DNA fragmentation); assay type: cell-based; settings: low concentrations (10 μM)
Description: Cells that annexin V-positive and PI-negative were considered apoptotic.

[4] = tested on: mouse embryonic cells (MEC), mitochondria; assay: EPR-based analysis of integration and reduction of nitroxide conjugates in MECs; assay type: cell-based; settings: MECs incubated with 10 μM compound
Experimental: Electron paramagnetic resonance (“EPR”) spectroscopy was used to monitor the cellular delivery of compounds 5a and 5b shown in FIG. 3 in mouse embryonic cells (“MEC”).
The following conditions were used during the EPR-based analysis of the integration and reduction of nitroxide Gramicidin S-peptidyl conjugates in MECs. The MECs at a concentration of 10 million MECs per mL were incubated with 10 μM of 4-AT and compound 5a, respectively. Recovered nitroxide radicals in whole cells, mitochondria, and cytosol fractions were resuspended in phosphate buffer saline (“PBS”) in the presence and absence, respectively, of 2 μM K3Fe(CN)6.

[5] = tested on: rat ileal mucosal permeability following hemorrhagic shock; assay: Intestinal mucosal permeability assay (FD4) after hemorrhagic shock; assay type: in vivo; settings: intraluminal
Experimental: Intestinal Mucosal Permeability Assay. Animals were allowed access to water but not food for 24 h prior to the experiment in order to decrease the volume of intestinal contents. The rats were instrumented as described above. A midline laparotomy was performed and the small intestine was exteriorized from the duodenojejunal junction to the ileocecal valve. A small incision was made on the antimesenteric aspect of the proximal small intestine and saline solution (1.5 ml) was injected. The bowel was ligated proximally and distally to the incision with 4-0 silk (Look, Reading, Pa.).
The small intestine was compressed gently in aboral direction along its length to displace intestinal contents into the colon. Starting 5 cm from the ileocecal valve, the ileum was partitioned into six contiguous water-tight segments. […]
The remaining four other segments were injected with solutions containing either 4-hydroxy-2,2,6,6-tetramethylpiperidine-N-oxyl (TEMPOL) or one of the Gramicidin S-based compounds. Four different final concentrations of TEMPOL in normal saline were evaluated: 0.1, 1, 5 and 20 mM. […]
Fluorescence of FD4 in the solution inside the beaker and within each gut sac was measured using a fluorescence spectrophotometer (LS-50, Perkin-Elmer, Palo Alto, Calif.) at an excitation wavelength of 492 nm and an emission wavelength of 515 nm. […]

[6] = tested on: rats subjected to volume-controlled hemorrhagic shock; assay: Survival of rats subjected to volume-controlled hemorrhagic shock; assay type: in vivo, rat; settings: 2 μmol/kg intravenous, no resuscitation
Experimental: Survival of Rats Subjected to Volume-controlled Hemorrhagic Shock. Following surgical preparation and a 5-min stabilization period to obtain baseline readings, rats were subjected to hemorrhagic shock. Bleeding was carried out in 2 phases.
Initially, 21 ml/kg of blood was withdrawn over 20 min. Immediately thereafter, an additional 12.5 ml/kg of blood was withdrawn over 40 min. Thus, hemorrhage occurred over a total period of 60 min and the total blood loss was 33.5 ml/kg or approximately 55% of the total blood volume. Rats were randomly assigned to receive XJB-5-131 (2 μmmol/kg) or its vehicle, a 33:67 (v/v) mixture of DMSO and normal saline. XJB-5-131 solution or vehicle alone was administered as a continuous infusion during the last 20 min of the hemorrhage period. The total volume of fluid infused was 2.8 ml/kg and it was administered intravenously using a syringe pump (KD100, KD Scientific, New Hope, Pa.). […] At the end of the 6 hour observation period, animals that were still alive were euthanized with an overdose of KCl.
Blood pressure was recorded continuously using a commercial strain-gauge transducer, amplifier, and monitor (590603a, SpaceLabs, Redmond, Wash.). […] Hemoglobin concentration [Hb], lactate and glucose concentration were determined using an auto-analyzer (Model ABL 725, Radiometer Copenhagen, Westlake, Ohio). […]

SMILES: CC1CCN=C(N)S1 (stereo not drawn) [AMT, 2-amino-6-methyl-thiazine, reference compound]
permeation of the mitochondrial membrane (unconjugated compound) [1]: do not enter the mitochondria membrane in substantial quantities

SMILES: CC1(C)CC(O)CC(C)(C)N1[O] [TEMPOL, 4-hydroxy-2,2,6,6-tetramethylpiperidine-N-oxyl, reference compound]
Do of gamma-irradiation survival curve [2]: 1.209 Gy

SMILES: CC1(C)CC(N)CC(C)(C)N1[O] [Compound 4-AT, 4-amino-TEMPO, reference compound]
permeation of the mitochondrial membrane (unconjugated compound) [1]: only permeate the mitochondrial membrane with the assistance of the attached GS-derived targeting sequence
protection of MECs against ActD-induced apoptosis [3]: afforded no protection
integration into cells and mitochondria (EPR signal of nitroxide radicals) [4]: did not effectively permeate cells or the mitochondria

SMILES: CC(C)C[C@@H](/C=C/[C@H](Cc1ccccc1)C(=O)N1CCC[C@H]1C(=O)N[C@H](C(=O)N[C@@H](CCCNC(=O)OCc1ccccc1)C(=O)NC1CC(C)(C)N([O])C(C)(C)C1)C(C)C)NC(=O)OC(C)(C)C [XJB-5-131]
hemorrhagic shock-induced mucosal hyperpermeability relative to control value [5]: approximately 60%
survival versus vehicle [6]: survived significantly longer
integration into cells and mitochondria (EPR signal of nitroxide radicals) [4]: concentrated in the mitochondria
integration into cells and mitochondria (EPR signal of nitroxide radicals) ([4]; listed as 5a): integration and one-electron reduction

Fmole/l 0 M mitochondrial protein (relative quantification of conjugate concentration at the target site) [1]: 89.8 Fmole/l 0 M mitochondrial protein
SMILES: CC(C)C[C@@H](/C=C/[C@H](Cc1ccccc1)C(=O)N1CCC[C@H]1C(=O)N[C@H](C(=O)N[C@@H](CCCNC(=O)OCc1ccccc1)C(=O)NC1=NCCC(C)S1)C(C)C)NC(=O)OC(C)(C)C (stereo partly drawn) [XJB-5-133, Boc-Leu-ψ[(E)-CH═CH]-^DPhe-Pro-Val-Orn(Cbz)-AMT]

Fmole/l 0 M mitochondrial protein (relative quantification of conjugate concentration at the target site) [1]: 103.3 Fmole/l 0 M mitochondrial protein
SMILES: C/C(=C\[C@H](Cc1ccccc1)C(=O)N1CCC[C@H]1C(=O)N[C@H](C(=O)N[C@@H](CCCNC(=O)OCc1ccccc1)C(=O)NC1=NCCC(C)S1)C(C)C)[C@H](CC(C)C)NC(=O)OC(C)(C)C (stereo partly drawn) [XJB-5-241, Boc-Leu-104 [(E)-C(CH3)═CH]-^DPhe-Pro-Val-Orn(Cbz)-AMT]

Fmole/l 0 M mitochondrial protein (relative quantification of conjugate concentration at the target site) [1]: 1.45 Fmole/l 0 M mitochondrial protein
SMILES: CC(C)C[C@@H](/C=C/[C@H](Cc1ccccc1)C(=O)NC1=NCCC(C)S1)NC(=O)OC(C)(C)C (stereo partly drawn) [XJB-5-234, Boc-Leu-ψ[(E)-CH═CH]-^DPhe-AMT]
